Values quoted from earlier work as cited in patent US7135436B2, “Solid algicide, preparation and usage in recirculating water” (J.F. Daley International, Ltd., priority 2003, dated 2006).

Settings: at 20° C.; 'believed to be'

Q: With `CCNc1nc(Cl)nc(NC(C)(C)C)n1` [terbuthylazine, 2-(tert-butylamino)-4-chloro-6-(ethylamino)-s-triazine] as the compound, how does the “solubility of terbuthylazine in water” value read?
A: The value was “about 5 ppm”.
